Source: the supplement of paper PMC10307832

Assays:
Test in all cases: relative viability (nuclei count vs DMSO), 5 days (fraction); higher = more cells survive
KN-93 + Trametinib = compound: CN(C/C=C/C1=CC=C(C=C1)Cl)CC2=CC=CC=C2N(CCO)S(=O)(=O)C3=CC=C(C=C3)OC [KN-93] + CC(=O)Nc1cccc(-n2c(=O)n(C3CC3)c(=O)c3c(Nc4ccc(I)cc4F)n(C)c(=O)c(C)c32)c1 [Trametinib] (partner 0.02 µM)
How it was run: (§1)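 Cells from lung cancer lines were seeded into 1536-well plates and, one day later, dosed by pin tool. Treatments were either a single drug or a fixed dose of an anchor drug with five library-drug doses (not always all listed) in √10 steps. After 5 days, nuclei were stained in a one-step fixation (final 0.05% Triton X-100, 1% formaldehyde, 1 ug/ml Hoechst) and counted on 4× images, and relative viability is the treated-to-vehicle nuclei ratio, as the median of duplicate plates.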

KN-93 + Palbociclib = compound: CN(C/C=C/C1=CC=C(C=C1)Cl)CC2=CC=CC=C2N(CCO)S(=O)(=O)C3=CC=C(C=C3)OC [KN-93] + CC(=O)c1c(C)c2cnc(Nc3ccc(N4CCNCC4)cn3)nc2n(C2CCCC2)c1=O [Palbociclib] (partner 0.5 µM)
How it was run: as §1

KN-93 + Lapatinib = compound: CN(C/C=C/C1=CC=C(C=C1)Cl)CC2=CC=CC=C2N(CCO)S(=O)(=O)C3=CC=C(C=C3)OC [KN-93] + CS(=O)(=O)CCNCc1ccc(-c2ccc3ncnc(Nc4ccc(OCc5cccc(F)c5)c(Cl)c4)c3c2)o1 [Lapatinib] (partner 2 µM)
How it was run: as §1

KN-93 + Pictilisib = compound: CN(C/C=C/C1=CC=C(C=C1)Cl)CC2=CC=CC=C2N(CCO)S(=O)(=O)C3=CC=C(C=C3)OC [KN-93] + CS(=O)(=O)N1CCN(Cc2cc3nc(-c4cccc5[nH]ncc45)nc(N4CCOCC4)c3s2)CC1 [Pictilisib] (partner 1 µM)
How it was run: as §1

KN-93 + Luminespib = compound: CN(C/C=C/C1=CC=C(C=C1)Cl)CC2=CC=CC=C2N(CCO)S(=O)(=O)C3=CC=C(C=C3)OC [KN-93] + CCNC(=O)c1noc(-c2cc(C(C)C)c(O)cc2O)c1-c1ccc(CN2CCOCC2)cc1 [Luminespib] (partner 0.01 µM)
How it was run: as §1

Row | Cell Line | relative viability (KN-93 + Trametinib; first compound 0.08 µM) | relative viability (KN-93 + Trametinib; first compound 0.253 µM) | relative viability (KN-93 + Trametinib; first compound 2.53 µM) | relative viability (KN-93 + Trametinib; first compound 8 µM) | relative viability (KN-93 + Palbociclib; first compound 0.08 µM) | relative viability (KN-93 + Palbociclib; first compound 0.253 µM) | relative viability (KN-93 + Palbociclib; first compound 2.53 µM) | relative viability (KN-93 + Palbociclib; first compound 8 µM) | relative viability (KN-93 + Lapatinib; first compound 0.253 µM) | relative viability (KN-93 + Lapatinib; first compound 2.53 µM) | relative viability (KN-93 + Lapatinib; first compound 8 µM) | relative viability (KN-93 + Pictilisib; first compound 0.08 µM) | relative viability (KN-93 + Pictilisib; first compound 0.253 µM) | relative viability (KN-93 + Pictilisib; first compound 2.53 µM) | relative viability (KN-93 + Pictilisib; first compound 8 µM) | relative viability (KN-93 + Luminespib; first compound 0.08 µM) | relative viability (KN-93 + Luminespib; first compound 0.253 µM) | relative viability (KN-93 + Luminespib; first compound 2.53 µM) | relative viability (KN-93 + Luminespib; first compound 8 µM) | relative viability (KN-93 + Lapatinib; first compound 0.08 µM)
1 | HCC-366 | 0.258 | 0.305 | 0.336 | 0.162 | 0.407 | 0.531 | 0.563 | 0.221 | 1.24 | 1.7 | 0.83 | 0.117 | 0.0961 | 0.134 | 0.107 | – | – | – | – | –
2 | HCC-827 | 0.539 | 0.546 | 0.491 | 0.426 | 0.591 | 0.492 | 0.845 | 0.422 | 0.204 | 0.197 | 0.194 | 1.08 | 0.982 | 1.03 | 0.986 | 0.642 | 0.836 | 0.496 | 0.465 | 0.218
3 | HOP-62 | 0.358 | 0.378 | 0.375 | 0.276 | 0.461 | 0.573 | 0.552 | 0.477 | 1.23 | 0.985 | 1 | 0.626 | 0.741 | 0.968 | 0.428 | 0.842 | 1.13 | 0.995 | 0.903 | 0.94
4 | IA-LM | – | – | – | – | – | – | – | – | 0.831 | 1.31 | 0.572 | 0.27 | 0.309 | 0.767 | 0.349 | – | – | – | – | 0.837
5 | LC-2-ad | 0.794 | 0.989 | 0.88 | 0.75 | 0.491 | 0.517 | 0.529 | 0.452 | 1.21 | 0.997 | 0.673 | 0.313 | 0.373 | 0.368 | 0.187 | 1.11 | 1.15 | 0.94 | 0.818 | 0.952
6 | LCLC-97TM1 | 0.185 | 0.181 | 0.163 | 0.153 | 0.293 | 0.227 | 0.207 | 0.158 | – | 1.12 | 0.425 | 0.176 | – | 0.182 | 0.156 | 0.717 | 0.845 | 0.849 | 0.714 | 1.06
7 | LCLC-103H | 0.692 | 0.678 | 0.609 | 0.551 | 0.472 | 0.458 | 0.49 | 0.518 | – | – | – | 0.617 | 0.581 | 0.614 | 0.537 | 0.948 | 1.22 | 1.04 | 0.756 | –
8 | LK-2 | 0.715 | 0.867 | 0.929 | 0.78 | 0.775 | 1.12 | 0.834 | 0.559 | 1.26 | 1.02 | 0.862 | 0.683 | 0.679 | 0.725 | 0.314 | 0.225 | 0.176 | 0.212 | 0.174 | 0.972
9 | LOU-NH91 | 0.789 | 0.677 | 0.822 | 0.716 | 0.542 | 0.562 | 0.56 | 0.512 | 0.575 | 0.886 | 0.692 | 0.513 | 0.422 | 0.568 | 0.489 | 0.399 | 0.353 | 0.331 | 0.321 | 0.761
